Data set [1] in a line: Thermodynamic (equilibrium) solubility assay. The class given is physicochemical. Conditions: aqueous buffer, thermodynamic from solid; 50 mM pH 7.4 phosphate buffer, 24 hours at room temperature. The protocol:
Thermodynamic Solubility Studies. The compounds of the present disclosure were tested in an equilibrium solubility assay.
An appropriate amount of test and control compounds were weighed into lower chambers of Whatman Mini-UniPrep vials. To these were added 50 mM pH 7.4 phosphate buffer (450 μL) to get a super-saturated suspension. The samples were vortexed for at least 2 minutes. The Whatman Mini-UniPrep vials were shaken on a shaker for 24 hours at room temperature at 800 rpm. The vials were centrifuged for 20 minutes (eg. 4000 rpm). Samples were compressed to prepare filtrates for injection into HPLC system and the concentration calculated with a standard curve. […] As shown in the table, compounds of the present disclosure may display improved properties (e.g., over the compounds in the prior art), such as enhanced potency, solubility, membrane permeability and transporter efflux.

For data set [2], the system named is IL-1β release upon NLRP3 activation in peripheral blood mononuclear cells (PBMC). Kind of data set: PBMC IC50 Determination Assay. The class given is cell-based. Conditions: Homo sapiens; LPS-primed PBMC stimulated with ATP (5 mM) or nigericin (10 μM); IL-1β by ELISA (Protocol A) or HTRF (Protocol B); salts tested. The protocol:
PBMC IC50 Determination Assay. The compounds of the present disclosure were tested for their inhibitory activity against IL-1β release upon NLRP3 activation in peripheral blood mononuclear cells (PBMC).
Protocol A. PBMC were isolated from buffy coats by density gradient centrifugation on Histopaque-1077 (Sigma, cat no. 10771). Isolated cells were seeded into the wells of a 96-well plate and incubated for 3 h with lipopolysaccharide (LPS). Following medium exchange, the compounds of the present disclosure were added (a single compound per well) and the cells were incubated for 30 min. Next, the cells were stimulated either with ATP (5 mM) or nigericin (10 μM) for 1 h and the cell culture media from the wells were collected for further analysis. The release of IL1-β into the media was determined by a quantitative detection of IL-1β in the media using an IL-1β enzyme-linked immunosorbent assay (ELISA) Ready-SET-Go!, eBioscience cat. No. 88-7261-88. Briefly, in a first step, high affinity binding plates (Corning, Costar 9018 or NUNC Maxisorp Cat No. 44-2404) were coated overnight at 4° C. with specific capture antibody included in the kit (anti-human IL-1β ref. 14-7018-68). Subsequently, plates were blocked with blocking buffer for 1 h at room temperature (rt) and after washing with a buffer (PBS with 0.05% Tween-20) incubated with protein standard and culture media. After 2 h of incubation at rt, plates were washed and incubated with biotinylated detection antibody included in the kit (anti-human IL-1β Biotin ref. 33-7110-68) for 1 h at rt. Plates were washed and incubated with HRP-streptavidin for 30 min at rt and washed again. The signal was developed after addition of 3,3′,5,5′-tetramethylbenzidine-peroxidase (TMB) until colour appeared and the reaction was stopped by 2 M H2SO4. A microplate spectrophotometer (BioTek) was used to detect signals with 450 nm. The detection range of IL-1β 3 ELISA was 2-150 ng/mL.
Protocol B. PBMC were isolated from buffy coats by density gradient centrifugation on Histopaque-1077 (Sigma, cat no. 10771). Isolated cells were seeded into the wells (280,000 cells/well) of a 96-well plate and incubated for 3 h with lipopolysaccharide (LPS, 1 μg/mL diluted 1000× from a 1 mg/mL stock solution). The compounds of the present disclosure were added (a single compound per well) and the cells were incubated for 30 min. Next, the cells were stimulated with ATP (5 mM final concentration diluted 20× from a 100 mM stock solution) for 1 h and the cell culture media from the wells were collected for further analysis. The release of IL-1β into the media was determined by quantitative detection of IL-1 in the media using HTRF®, CisBio cat. No. 62HIL1BPEH. Briefly, cell culture supernatant were dispensed directly into the assay plate containing antibodies labelled with the HTRF® donor and acceptor. A microplate spectrophotometer (BMG) was used to detect signals at 655 nm and 620 nm. The detection range of IL-1β HTRF® was […].
(In general: In an ELISA, binding on a coated surface is turned into a signal by an enzyme label.)

The subject of data set [3] is P-glycoprotein (P-gp) or breast cancer resistance protein (BCRP). The data set can be described thus: BCRP and P-gp Caco-2 permeability assay. The format is in vitro ADME. The conditions noted are these: efflux ratio, Caco-2 cells. How it is done:
BCRP and P-gp Caco-2 Studies. The compounds of the present disclosure were tested in a Caco-2 permeability assay to assess whether they are actively transported out of cells by the efflux proteins, P-glycoprotein (P-gp) or breast cancer resistance protein (BCRP).
Caco-2 cells were used between passage numbers 40-60. Cells were seeded onto Millipore Multiscreen Transwell plates at […]. The cells were cultured in DMEM and media was changed every two or three days. On Day 18-22 the BCRP inhibition study was performed. Cell culture and assay incubations were carried out at 37° C. in an atmosphere of 5% CO2 with a relative humidity of 95%. On the day of the assay, the monolayers were prepared by rinsing both apical and basolateral surfaces twice with warmed (37° C.) transport buffer (Hanks Balanced Salt Solution [HBSS] containing 25 mM HEPES and 4.45 mM glucose, pH 7.4). Cells were then incubated with transport buffer containing test compound or positive control inhibitor (novobiocin) in both apical and basolateral compartments for 30 minutes at 37° C. For the inhibition studies a P-gp inhibitor or BCRP inhibitor was included on both sides of the monolayer for the equilibration period. The dosing solutions were prepared by diluting estrone 3-sulfate and test compound where applicable to give a final estrone 3-sulfate concentration of 1 μM (final DMSO concentration of 1% v/v). The fluorescent integrity marker lucifer yellow was prepared in receiver solutions in vehicle or test compound-containing transport buffer. After pre-incubation, the transport buffer was removed from both apical and basolateral compartments and replaced with the appropriate dosing or receiver solution. For assessment of B-A permeability, transport buffer was removed from the basolateral companion plate and replaced with dosing solution. Fresh transport buffer containing lucifer yellow and test compound where applicable (final DMSO concentration 1% v/v) was added to the apical compartment insert, which was then placed into the companion plate. After a 90-minute incubation the apical compartment inserts and the companion plates were separated and compartments sampled for analysis. Seven concentrations of compound (up to 100 μM) were assessed in addition to a vehicle control (0 μM). A triplicate determination of each concentration was performed. The positive control inhibitor was evaluated in parallel. [^3H]-estrone 3-sulfate was quantified by liquid scintillation counting to give disintegrations per minute (dpm). The integrity of the monolayer throughout the experiment was checked by monitoring lucifer yellow permeation using fluorimetric analysis. Corrected B-A apparent permeability (Papp) of probe substrate was calculated by subtracting its mean passive Papp determined in the presence of the highest concentration of positive control inhibitor (giving 100% transporter inhibition). The mean corrected B-A Papp from vehicle wells (0 μM test compound) was defined as 100% transport activity and this value was then used to calculate the percentage control transport activity for all other test compound concentrations. Percentage control transport activity was plotted against test compound concentration and fitted to calculate an IC50 value.
The efflux ratio (ER) values of compounds of the present disclosure are shown in Table B below (“****” means <3; “***” 3≥ and <10; “**” means ≥10 and <30; “*” means ≥30).
Background: Caco-2 monolayers are a common model of the intestinal barrier.

The next data set in a line: PAMPA permeability assay. The class given is in vitro ADME. The conditions noted are these: 10 μM donor, PBS, 4 hours at room temperature, lecithin/dodecane membrane. How it is done: PAMPA Studies. The compounds of the present disclosure were tested in a PAMPA permeability assay to assess passive transcellular permeation.
Protocol. 0.2 mM working solution was prepared by diluting 10 mM stock solution with DMSO. 10 μM donor solution (5% DMSO) was prepared by diluting 20 μL of working solution with 380 μL PBS. 150 μL of 10 μM donor solutions to each well of the donor plate, whose PVDF membrane was precoated with 5 μL of 1% lecithin/dodecane mixture. Duplicates were prepared. 300 μL of PBS was added to each well of the PTFE acceptor plate. The donor plate and acceptor plate were combined and incubated for 4 hours at room temperature with shaking at 300 rpm. Preparation of TO sample: 20 μL donor solution was transferred to new well followed by the addition of 250 μL PBS (DF: 13.5), 130 μL ACN (containing internal standard) as TO sample. Preparation of acceptor sample: The plate was removed from incubator. 270 μL solution was transferred from each acceptor well and mixed with 130 μL ACN (containing internal standard) as acceptor sample. Preparation of donor sample: 20 μL solution was transferred from each donor well and mixed with 250 μL PBS (DF: 13.5), 130 μL ACN (containing internal standard) as donor sample. Acceptor samples and donor samples were all analysed by LC-MS/MS.
The measured PAMPA permeability values of compounds of the present disclosure are shown in Table B below (“$$$$” means >10 nm/“$$$” means ≥3 and <10 nm/s; “$$” means ≥1 and <3 nm/s; “$” means <1 nm/s).

In brackets after ≈: the same amount, converted by molar mass. Structures can show the parent of a compound that is named as a salt.

In general, thermodynamic solubility refers to the concentration in solution at equilibrium with solid. By IC50 is commonly meant the midpoint of a concentration-inhibition curve.

`Cn1cc(N(C[C@@H]2CCCO2)S(=O)(=O)NC(=O)Nc2c3c(cc4c2CCC4)CCC3)cn1` [Compound 1A, Sodium [(1,2,3,5,6,7-hexahydro-s-indacen-4-yl)carbamoyl][(1-methyl-1H-pyrazol-4-yl)({[(2S)-oxolan-2-yl]methyl})sulfamoyl]azanide] displayed a solubility (thermodynamic) at 24 h in data set [1] of 3000 to 10000 µg/mL. For the same compound, the IC50 in data set [2] is less than 100 nM. Further, the “Caco-2 ER” value in data set [3] was “**** (“****” means <3)”. For the same compound, the “PAMPA Pe” value in the data set “PAMPA permeability assay” is “$$ (“$$” means ≥1 and <3 nm/s)”.

In data set [1], `Cn1cc(N(CC2CCOC2)S(=O)(=O)NC(=O)Nc2c3c(cc4c2CCC4)CCC3)cn1` (stereo not drawn) [Compound 4] gave a solubility (thermodynamic) at 24 h of 1000 to 3000 µg/mL (≈ 2.18 to 6.53 mM). For the same compound, in data set [2], the IC50 lay in the range of 100 to 1000 nM. The “Caco-2 ER” value in data set [3] was “** (“**” means ≥10 and <30)”. Also, in the data set “PAMPA permeability assay”, the “PAMPA Pe” value is recorded as “$ (“$” means <1 nm/s)”.

Take `Cn1cc(N(CC2CCCO2)S(=O)(=O)NC(=O)Nc2c3c(cc4c2CCC4)CCC3)cn1` (stereo not drawn) [Compound 1]: in data set [2], the IC50 was less than 100 nM.

With `Cn1cc(N(C[C@@H]2C[C@H](O)CO2)S(=O)(=O)NC(=O)Nc2c3c(cc4c2CCC4)CCC3)cn1` (relative stereo) [Compound 2A, Sodium ((1,2,3,5,6,7-hexahydro-s-indacen-4-yl)carbamoyl)(N-((cis-4-hydroxy-tetrahydrofuran-2-yl)methyl)-N-(1-methyl-1H-pyrazol-4-yl)sulfamoyl)amide], the IC50 in data set [2] is less than 100 nM.

`Cn1cc(N(C[C@H]2CCCO2)S(=O)(=O)NC(=O)Nc2c3c(cc4c2CCC4)CCC3)cn1` [Compound 1B, Sodium [(1,2,3,5,6,7-hexahydro-s-indacen-4-yl)carbamoyl][(1-methyl-1H-pyrazol-4-yl)({[(2R)-oxolan-2-yl]methyl})sulfamoyl]azanide]: the solubility (thermodynamic) at 24 h in data set [1] fell in the range of 1000 to 3000 µg/mL. The IC50 in data set [2] is less than 100 nM. Moreover, in data set [3], the “Caco-2 ER” value was “**** (“****” means <3)”. For the same compound, the “PAMPA Pe” value in the data set “PAMPA permeability assay” was “$$ (“$$” means ≥1 and <3 nm/s)”.

Consider `Cn1cc(N(CC2CCCCO2)S(=O)(=O)NC(=O)Nc2c3c(cc4c2CCC4)CCC3)cn1` (stereo not drawn) [Compound 6, Sodium [(1,2,3,5,6,7-hexahydro-s-indacen-4-yl)carbamoyl][(1-methyl-1H-pyrazol-4-yl)[(oxan-2-yl)methyl]sulfamoyl]azanide], for which, in data set [1], the solubility (thermodynamic) at 24 h was in the range of 3000 to 10000 µg/mL. Also, the IC50 in data set [2] is less than 100 nM. Also, the “Caco-2 ER” value in data set [3] is “**** (“****” means <3)”. Moreover, in “PAMPA permeability assay”, the “PAMPA Pe” value is given as “$$$$ (“$$$$” means >10 nm/)”.

Take `Cn1cc(N(C[C@H]2C[C@H](O)CO2)S(=O)(=O)NC(=O)Nc2c3c(cc4c2CCC4)CCC3)cn1` [Compound 2B, 1-(1,2,3,5,6,7-Hexahydro-s-indacen-4-yl)-3-[[(2R,4S)-4-hydroxytetrahydro-furan-2-yl]methyl-(1-methylpyrazol-4-yl)sulfamoyl]urea, sodium salt]: the IC50 in data set [2] lay within 100 to 1000 nM.

As for `Cn1cc(N(CCC2CCCO2)S(=O)(=O)NC(=O)Nc2c3c(cc4c2CCC4)CCC3)cn1` (stereo not drawn) [Compound 5, Sodium [(1,2,3,5,6,7-hexahydro-s-indacen-4-yl)carbamoyl][(1-methyl-1H-pyrazol-4-yl)[2-(oxolan-2-yl)ethyl]sulfamoyl]azanide], the thermodynamic solubility at 24 h in data set [1] was in the range of 3000 to 10000 µg/mL. The IC50 in data set [2] fell in the range of 100 to 1000 nM. Further, the “Caco-2 ER” value in data set [3] was “*** (“***” 3≥ and <10)”. Moreover, the “PAMPA Pe” value in the data set “PAMPA permeability assay” is “$$ (“$$” means ≥1 and <3 nm/s)”.

In the case of `O=C(Nc1c2c(cc3c1CCC3)CCC2)NS(=O)(=O)N(C[C@@H]1CCCO1)c1cn[nH]c1` [Compound 8A, 1-(1,2,3,5,6,7-hexahydro-s-indacen-4-yl)-3-[1H-pyrazol-4-yl-[[(2S)-tetrahydrofuran-2-yl]methyl]sulfamoyl]urea], in data set [2], the 50% inhibitory concentration (IC50) was less than 100 nM.

The values above are taken from patent US20240043410A1, “SULPHAMOYL UREA DERIVATIVES CONTAINING ALKYL-OXACYCLOALKYL MOIETY AND USES THEREOF” (NodThera Limited, priority 2020, published 2024).
